Reference: patent US20100144736A1, “NOVEL BIPHENYL THIO-UREA DERIVATIVES USEFUL AS POTASSIUM CHANNEL MODULATORS” (NeuroSearch A/S, priority 2006, published 2010)

Target: T1, BK channels heterologously expressed in Xenopus laevis oocytes (Homo sapiens, UniProt Q12791)
T1 construct: expressed in transfected cells; host or cells: Xenopus laevis oocytes
Experiment: BK channel opening activity, two-electrode voltage clamp in Xenopus laevis oocytes
Format: cell-based
Conditions: Compound added in increasing concentrations, 1, 3 and 10 μM; step from −40 mV to +30 mV; FIG. 1
Method: The electrical current through the BK channel is measured conventional two-electrode voltage clamp. BK current is activated by repeated step protocols. In brief, this protocol goes from a resting membrane potential of −40 mV lasting for 5 s to a depolarised step to +30 mV lasting for 1 s. The protocol was repeated continuously.
Having reached a stable current level, Compound 1 was added in increasing concentrations. Between each application compound was washed out until baseline current activity was obtained.

T1 sequence (Q12791 whole entry): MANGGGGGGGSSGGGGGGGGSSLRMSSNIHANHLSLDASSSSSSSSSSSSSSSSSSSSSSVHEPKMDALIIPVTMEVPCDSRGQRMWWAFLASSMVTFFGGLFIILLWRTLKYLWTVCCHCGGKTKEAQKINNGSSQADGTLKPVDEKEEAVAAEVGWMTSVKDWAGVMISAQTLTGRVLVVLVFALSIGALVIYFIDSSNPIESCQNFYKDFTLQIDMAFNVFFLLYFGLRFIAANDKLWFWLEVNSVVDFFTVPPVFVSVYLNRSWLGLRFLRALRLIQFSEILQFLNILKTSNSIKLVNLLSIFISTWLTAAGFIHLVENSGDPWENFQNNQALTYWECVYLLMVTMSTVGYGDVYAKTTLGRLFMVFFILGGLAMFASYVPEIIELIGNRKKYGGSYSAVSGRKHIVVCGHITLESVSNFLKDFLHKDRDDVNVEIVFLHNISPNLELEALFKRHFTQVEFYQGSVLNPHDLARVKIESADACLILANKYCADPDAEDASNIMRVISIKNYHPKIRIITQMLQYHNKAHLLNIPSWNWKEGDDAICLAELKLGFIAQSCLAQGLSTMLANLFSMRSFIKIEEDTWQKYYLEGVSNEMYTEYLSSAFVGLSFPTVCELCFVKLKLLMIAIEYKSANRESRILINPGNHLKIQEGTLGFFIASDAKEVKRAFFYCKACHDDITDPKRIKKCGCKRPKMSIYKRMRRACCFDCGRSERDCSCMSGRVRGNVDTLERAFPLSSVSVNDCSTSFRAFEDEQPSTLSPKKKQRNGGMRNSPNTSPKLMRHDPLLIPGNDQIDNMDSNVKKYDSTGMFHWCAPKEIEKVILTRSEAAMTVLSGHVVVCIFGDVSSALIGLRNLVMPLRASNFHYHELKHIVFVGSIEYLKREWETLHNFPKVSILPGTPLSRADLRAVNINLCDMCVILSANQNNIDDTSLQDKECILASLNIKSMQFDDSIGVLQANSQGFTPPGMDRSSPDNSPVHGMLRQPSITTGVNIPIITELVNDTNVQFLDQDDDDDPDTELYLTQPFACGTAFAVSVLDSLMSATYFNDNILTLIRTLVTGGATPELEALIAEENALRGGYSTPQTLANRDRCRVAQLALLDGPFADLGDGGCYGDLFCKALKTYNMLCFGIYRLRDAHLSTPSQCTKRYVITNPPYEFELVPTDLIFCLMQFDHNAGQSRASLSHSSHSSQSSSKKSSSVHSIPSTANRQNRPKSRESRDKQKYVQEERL

Compound: FC(F)(F)c1cc(NC(=S)Nc2ccc(Br)cc2-c2nnn[nH]2)cc(C(F)(F)F)c1 [Compound 1, 1-(3,5-Bis-trifluoromethyl-phenyl)-3-[4-bromo-2-(1H-tetrazol-5-yl)-phenyl]-thiourea]
- current activated by depolarisation (BK current): marked increase
